Assay results published in patent US8962553B2, “Method of treating a diabetic subject having a microvascular impairment disorder by a pegylated C-peptide” (Cebix Ab, priority 2011, dated 2015).
Where two headings read alike, the source gives them in different places.

Legend:
[1] = in vivo
clinical = conditions: human, in vivo
Experimental: (§1) In a single-dose pharmacokinetic study of C-peptide in patients with type 1 diabetes, recombinant human C-peptide was administered subcutaneously at doses of 150 nmol, 600 nmol, 1800 nmol, and intravenously at a dose of 150 nmol with a wash-out period of at least three days.

[2] = Single-dose pharmacokinetic study of C-peptide in patients with type 1 diabetes; conditions: human, in vivo; for Vd: 0.45 mg (150 nmol) i.v., mean ± SD
Experimental: as §1

[3] = STZ rat Study #1: animal survival and clinical observations; assay type: in vivo; conditions: Group 5: 1.5 mg/kg over 24 h by pump, N 10, STZ rats, end of study
Experimental: Male Sprague Dawley rats (Harlan Laboratories, Inc.; Indianapolis, Ind.) weighing approximately 400 g had type 1 diabetes induced on Day 1 by intravenous administration of clinical-grade STZ (Zanosar®; 50 mg/kg in Study #1 and 33 mg/kg in Study #2). On Day 3 (Study #1) or Day 4 (Study #2), blood was collected and K3EDTA plasma was analyzed for endogenous C-peptide levels and animals with C-peptide <0.4 nM were randomized on Day 7 (Study #1) or Day 9 (Study #2) taking into account body weight and blood glucose (criterion in the range 400-600 mg/dL). Randomization was done using Covance's BRAT system.
Insulin (Lantus®, long-acting insulin glargine) was used in both studies and administered subcutaneously in the evening before the start of the 12-hour dark cycle in the animal room (time period when most food consumption takes place). In Study #1, rats were initiated on insulin after there were a number of animal deaths starting early in the study (3 days into the treatment period). All animals were receiving 3 U/day of insulin by the end of the study. […] Additionally to limit dehydration when needed throughout the studies, warm sterile saline (volume determined by veterinarian) was administered to animals, and in particular in Study #2, to animals 24 hours prior to undergoing surgery for pump implantation. […]

[4] = cited from earlier work
[5] = in vivo; cited from earlier work

With `CC(C)C[C@H](NC(=O)[C@H](C)NC(=O)[C@H](CC(C)C)NC(=O)[C@@H]1CCCN1C(=O)[C@H](CCC(N)=O)NC(=O)[C@H](CC(C)C)NC(=O)[C@H](CO)NC(=O)CNC(=O)[C@H](C)NC(=O)CNC(=O)[C@@H]1CCCN1C(=O)CNC(=O)CNC(=O)CNC(=O)[C@H](CC(C)C)NC(=O)[C@H](CCC(=O)O)NC(=O)[C@@H](NC(=O)[C@H](CCC(N)=O)NC(=O)CNC(=O)[C@@H](NC(=O)[C@H](CCC(N)=O)NC(=O)[C@H](CC(C)C)NC(=O)[C@H](CC(=O)O)NC(=O)[C@H](CCC(=O)O)NC(=O)[C@H](C)NC(=O)[C@@H](N)CCC(=O)O)C(C)C)C(C)C)C(=O)N[C@@H](CCC(=O)O)C(=O)NCC(=O)N[C@@H](CO)C(=O)N[C@@H](CC(C)C)C(=O)N[C@@H](CCC(N)=O)C(=O)O` [C-peptide] the “dose required to obtain a plasma concentration of 1-3 nM” value [1] was 10.5 mg/week, the “dose required to obtain a plasma concentration of 1-3 nM for most of the day” value [1] was 1.5 mg/day and the half-life (clinical; iv, 0.45 mg) was 1.13 h. It also gave a CL/F (clinical; sc, 0.45 mg) of 290 ± 67 mL/min, a Vd/F (clinical; sc, 0.45 mg) of 28.3 ± 8.96 L and a half-life (clinical; sc, 0.45 mg) of 1.13 ± 0.35 h. The CL/F (clinical; sc, 1.8 mg) was 270 ± 47 mL/min, the Vd/F (clinical; sc, 1.8 mg) was 23.4 ± 5.27 L and the half-life (clinical; sc, 1.8 mg) was 1.02 h. It also gave a CL/F (clinical; sc, 5.4 mg) of 250 ± 41 mL/min, a Vd/F (clinical; sc, 5.4 mg) of 24.4 ± 5.47 L and a half-life (clinical; sc, 5.4 mg) of 1.13 h. It also gave a Cmax ([2]; iv, 0.45 mg) of 30.8 ± 6.57 nM, a clearance ([2]; iv, 0.45 mg) of 250 ± 46 mL/min and a Vd ([2]; iv, 0.45 mg, Vss) of 10.9 ± 1.97 L. It also gave a Vd ([2]; iv, 0.45 mg, Vz) of 25.6 ± 7.65 L, a Cmax ([2]; sc, 0.45 mg) of 3.7 ± 1.04 nM and a Tmax ([2]; sc, 0.45 mg) of 0.833 h. It also gave a bioavailability ([2]; sc, 0.45 mg) of 86.9 ± 12.1%, a Cmax ([2]; sc, 1.8 mg) of 14.3 ± 3.22 nM and a Tmax ([2]; sc, 1.8 mg) of 1.08 h. The Cmax ([2]; sc, 5.4 mg) was 40.3 ± 7.03 nM, the Tmax ([2]; sc, 5.4 mg) was 1.22 h and the “Number of Surviving Animals” value [3] was 1. For the same molecule, the half-life ([4]; healthy subjects, range of 24.9-45.3 minutes) was 0.558 h and the half-life ([4]; subjects with type 1 diabetes, range of 39.4-48.5 minutes) was 0.708 h.
For Glargine insulin, the duration of activity [5] is given as 24 h and the “peak time of effect” value [5] is given as “no peak effect”.
For “Regular insulin: short-acting insulin preparation”, the onset of action [5] is given as 30 to 60 min.
